Laboratory results from patent US5242938A, “Derivatives of virginiamycin M1” (Merck & Co., Inc., priority 1992, dated 1993).
≈ marks a conversion by molar mass, not a printed value. Where two headings read alike, the source gives them in different places.

How the values were obtained:
[1] = target: T1, CCK-B (guinea pig cortex) (Cavia porcellus, UniProt H0VZC5); test: [125I]BHCCK-8 radioligand binding, guinea pig cortical preparation; conditions: read-out: CCK binding inhibition - IC50, [125I]BHCCK
T1 construct: guinea pig cortical preparations; from tissue; host or cells: guinea pig brain cortex membranes
T1 sequence (H0VZC5 1-426): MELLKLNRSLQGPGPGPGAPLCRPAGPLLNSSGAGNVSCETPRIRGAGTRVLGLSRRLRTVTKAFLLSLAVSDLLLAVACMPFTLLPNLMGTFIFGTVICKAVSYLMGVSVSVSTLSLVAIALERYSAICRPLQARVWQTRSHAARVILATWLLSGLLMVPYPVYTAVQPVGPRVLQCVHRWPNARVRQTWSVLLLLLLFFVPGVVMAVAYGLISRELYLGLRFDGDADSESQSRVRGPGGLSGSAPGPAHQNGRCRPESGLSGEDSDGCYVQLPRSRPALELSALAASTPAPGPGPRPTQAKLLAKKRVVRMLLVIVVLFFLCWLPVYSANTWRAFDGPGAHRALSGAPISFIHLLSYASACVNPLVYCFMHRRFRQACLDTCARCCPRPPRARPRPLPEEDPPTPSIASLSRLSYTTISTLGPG
Procedure: (§1) The resulting supernatant was re-spun at 20,000×g for 20 minutes. […] Incubations were for 40 minutes at 4° C. and were terminated by filtration and washing with ice cold 100 mM saline. […] Incubations were for 30 minutes at room temperature and were terminated by filtration over GF/C filters and washing with 100 mM NaCl.

[2] = tested on: Escherichia coli (Mb 1418); test: Agar diffusion disc assay, Coli 1418; type: cell-based; conditions: Escherichia coli, 18 h; @ 20 g/disc; read-out: Inhibition zone diameter, Coli 1418
In short: (§2)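 Paper-disc agar diffusion per Barry. Methanol stock 1 mg/ml, serial dilutions, 20 μl per 6 mm disc, air dried. Seeded plates ~10^6 cfu, ~18 h, 25° C. Zones to nearest mm; n=3, mean.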

[3] = tested on: Bacillus subtilis (Mb 964, ATCC 6633); test: Agar diffusion disc assay, Subt 964; type: cell-based; conditions: Bacillus subtilis, ATCC6633, 18 h; @ 20 g/disc; read-out: Inhibition zone diameter, Subt 964
In short: as §2

[4] = tested on: Corynebacterium pseudodiphtheriticum (Mb 261, ATCC 9742); test: Agar diffusion disc assay, Cory 261; type: cell-based; conditions: Corynebacterium pseudodiphtheriticum, ATCC9742, 18 h; @ 20 g/disc; read-out: Inhibition zone diameter, Cory 261
In short: as §2

[5] = tested on: Staphylococcus aureus (Mb 2983); test: Agar diffusion disc assay, Sta 2983; type: cell-based; conditions: Staphylococcus aureus, 18 h; @ 20 g/disc; read-out: Inhibition zone diameter, Sta 2983
In short: as §2

[6] = target: T2, CCK-A (rat pancreas) (Rattus norvegicus, UniProt P30551); test: [125I]BHCCK-8 radioligand binding, rat pancreatic preparation; conditions: read-out: CCK binding inhibition - IC50, [125I]BHCCK
T2 construct: from tissue; host or cells: rat pancreas
T2 sequence (P30551 1-444): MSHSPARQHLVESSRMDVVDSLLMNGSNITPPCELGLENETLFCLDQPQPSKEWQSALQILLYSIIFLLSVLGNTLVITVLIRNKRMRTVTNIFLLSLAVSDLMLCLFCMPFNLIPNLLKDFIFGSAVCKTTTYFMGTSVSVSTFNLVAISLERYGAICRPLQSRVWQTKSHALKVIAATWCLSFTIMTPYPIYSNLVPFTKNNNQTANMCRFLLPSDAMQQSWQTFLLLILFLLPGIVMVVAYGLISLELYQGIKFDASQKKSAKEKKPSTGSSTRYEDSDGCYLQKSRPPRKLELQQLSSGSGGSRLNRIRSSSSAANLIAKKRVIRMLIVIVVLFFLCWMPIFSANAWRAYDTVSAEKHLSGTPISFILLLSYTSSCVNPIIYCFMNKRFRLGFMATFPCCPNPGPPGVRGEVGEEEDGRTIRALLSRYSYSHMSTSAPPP
Procedure: as §1

[7] = tested on: Streptococcus agalactiae (Mb 2875); test: Agar diffusion disc assay, Str 2875; type: cell-based; conditions: Streptococcus agalactiae, 18 h; @ 20 g/disc; read-out: Inhibition zone diameter, Str 2875
In short: as §2

[8] = target: T2, CCK-A (rat pancreas); test: [3H]L-364,718 CCK-A selective antagonist ligand binding, pancreas; conditions: for A.R. = agonist ratio: [3H]L-364,718 / [125I]BHCCK; for IC50: read-out: CCK binding inhibition - IC50, [3H]L-364,718
Procedure: as §1

[9] = tested on: Staphylococcus aureus (Mb 108, ATCC 6538P); test: Agar diffusion disc assay, Sta 108; type: cell-based; conditions: Staphylococcus aureus, ATCC6538P, 18 h; @ 20 g/disc; read-out: Inhibition zone diameter, Sta 108
In short: as §2

[10] = tested on: Micrococcus luteus (Mb 1101, ATCC 9341); test: Agar diffusion disc assay, Micr 1101; type: cell-based; conditions: Micrococcus luteus; for MIC: read-out: Agar Diffusion MIC versus Micrococcus luteus
In short: as §2

[11] = target: T1, CCK-B (guinea pig cortex); test: [3H]L-365,260 CCK-B selective antagonist ligand binding, brain membranes; conditions: for IC50: read-out: CCK binding inhibition - IC50, [3H]L-365,260
Procedure: as §1

[12] = tested on: Pseudomonas stutzeri (Mb 1231, ATCC 11607); test: Agar diffusion disc assay, Pseu 1231; type: cell-based; conditions: Stutzerimonas stutzeri, ATCC11607, 18 h; @ 20 g/disc; read-out: Inhibition zone diameter, Pseu 1231
In short: as §2

[13] = tested on: Salmonella gallinarum (Mb 1287); test: Agar diffusion disc assay, Salm 1287; type: cell-based; conditions: Salmonella enterica, GALLINARUM, 18 h; @ 20 g/disc; read-out: Inhibition zone diameter, Salm 1287
In short: as §2

[14] = tested on: En terobacter aergenes (Mb 835); test: Agar diffusion disc assay, Ent 835; type: cell-based; conditions: 18 h; @ 20 g/disc; read-out: Inhibition zone diameter, Ent 835
In short: as §2

[15] = tested on: Streptococcus faecium (Mb 2820); test: Agar diffusion disc assay, Str 2820; type: cell-based; conditions: Enterococcus faecium, 18 h; @ 20 g/disc; read-out: Inhibition zone diameter, Str 2820
In short: as §2

[16] = tested on: Bacillus sp. (Mb 633); test: Agar diffusion disc assay, Baci 633; type: cell-based; conditions: Bacillus, 18 h
In short: as §2

[17] = tested on: gastric acid secretion; conditions: cited from earlier work
[18] = ATCC9341, 18 h, @ 20 g/disc, read-out: Inhibition zone diameter, Micr 1101

Molecule | IC50 [1] [nM] | zone of inhibition at 20 µg/disc [2] [mm] | zone of inhibition at 20 µg/disc [3] [mm] | zone of inhibition at 20 µg/disc [4] [mm] | zone of inhibition at 20 µg/disc [5] [mm] | IC50 [6] [nM] | zone of inhibition at 20 µg/disc [7] [mm] | A.R. = agonist ratio [8] | IC50 [8] [nM] | zone of inhibition at 20 µg/disc [9] [mm] | zone of inhibition at 20 µg/disc [10, 18] [mm] | MIC ([10]; ATCC9341, 18 h) [µM] | A.R. = agonist ratio = IC50([3H]L365,260)/IC50([125I]CCK) [11] | IC50 [11] [nM] | zone of inhibition at 20 µg/disc [12] [mm] | zone of inhibition at 20 µg/disc [13] [mm] | zone of inhibition at 20 µg/disc [14] [mm] | zone of inhibition at 20 µg/disc [15] [mm] | further results
CC1=C\[C@@H](OC(=O)Nc2ccccc2)CC(=O)Cc2nc(co2)C(=O)N2CCC=C2C(=O)O[C@H](C(C)C)[C@H](C)/C=C/C(=O)NC\C=C\1 [Example 11] | 300 | 0 | 0 | 0 | 0 | 2300 | 0 | 1.7 | 4000 | 0 | 14 | 0.05 (≈ 0.0322 µg/mL) | 5.3 | 1600 | 0 | 0 | 0 | 0 | zone of inhibition at 1.25 µg/disc ([10]; ATCC9341, 1.25 μg/disc, 25° C., ~18 hours, read-out: Mean of triplicate zone size versus Micrococcus luteus): 7 mm; zone of inhibition at 2.5 µg/disc ([10]; ATCC9341, 2.50 μg/disc, 25° C., ~18 hours, read-out: Mean of triplicate zone size versus Micrococcus luteus): 10 mm; zone of inhibition at 5 µg/disc ([10]; ATCC9341, 5.00 μg/disc, 25° C., ~18 hours, read-out: Mean of triplicate zone size versus Micrococcus luteus): 11 mm; zone of inhibition at 10 µg/disc ([10]; ATCC9341, 10.0 μg/disc, 25° C., ~18 hours, read-out: Mean of triplicate zone size versus Micrococcus luteus): 12 mm; zone of inhibition at 20 µg/disc ([10]; ATCC9341, 20.0 μg/disc, 25° C., ~18 hours, read-out: Mean of triplicate zone size versus Micrococcus luteus): 12 mm; zone of inhibition at 20 µg/disc ([16]; @ 20 g/disc, read-out: Inhibition zone diameter, Baci 633): 0 mm
CC1=C\[C@@H](OC(=O)Nc2cccc(C)c2)CC(=O)Cc2nc(co2)C(=O)N2CCC=C2C(=O)O[C@H](C(C)C)[C@H](C)/C=C/C(=O)NC\C=C\1 [Example 12] | 400 | 0 | 0 | 0 | 0 | 1900 | 0 | 4.2 | 8000 | 0 | 9 | > 243 | 7.5 | 3000 | 0 | 0 | 0 | 0 | zone of inhibition at 20 µg/disc ([16]; read-out: Inhibition zone diameter, Baci 633, @ 20 g/disc): 0 mm
Gastrin-17 | – | – | – | – | – | – | – | – | – | – | – | – | – | – | – | – | – | – | potency for stimulating gastric acid secretion relative to Gastrin-13 [17]: 2.5 times; potency for stimulating gastric acid secretion relative to Gastrin-34 [17]: 5 times
